Laboratory results from paper PMC11696576, “Next generation thiazolyl ketone inhibitors of cytosolic phospholipase A2 α for targeted cancer therapy” (Nature Communications, 2025).
Where “and” joins values, the source holds several entries; their conditions need not be identical. Equal entries are not always repeated. Where two headings read alike, the source gives them in different places.

System: panel of 66 cancer cell lines
Assay: cancer cell line screen, proliferation assay (ATPlite, 72 h)
Format: cell-based, human
Settings: for IC50: Homo sapiens; for raw signal, dose-response (Figure S7a): rep1, rep2, listed as AVX235
From the text: Targeting specific molecular vulnerabilities in cancer is considered a key approach to reducing the adverse effects of chemotherapy. However, the events that govern the susceptibility to suppression of the cPLA2α in cancer remain largely unexplored. We therefore took the approach of screening the antiproliferative activity of AVX420 in a panel of 66 cancer cell lines (hereafter referred to as the cancer cell line screen or CCLS) to allow us to investigate molecular and genetic vulnerabilities to the drug.
Screening of compound activities in 66 cancer cell lines was carried out at the Netherlands Translation Research Center. Briefly, proliferation assays were performed 72 h after compound addition using ATPlite 1step reagent (Perkin Elmer). IC50s calculated by non-linear regression analysis were used as a measure of compound activity for investigating associations with genetic factors. A complete description of the laboratory and data analysis methods are available in the Supplementary Information file (Supplemental Methods: Cancer Cell Line Screening).
Cancer cell line screening
Cell proliferation assays
All cell lines were from the American Type Culture Collection (ATCC) Manassas, Virginia (US) and maintained under ATCC-recommended protocols and within 9 pas- […]
DMSO at -80°C until one hour before use. Cells exposed within one hour after thaw-ing of the compound stocks. Final compound concentration range in the assay was 10 […]
cated by supplier. Compounds were dissolved in 100 % DMSO and stored at room temperature. Final concentration of the reference compounds in the assay was 3.16x10-5 M to 3.16x10-9 M. The final DMSO concentration during incubation was […]
Cell lines were plated in Advanced RPMI 1640 (Gibco, ref 12633-012) cell culture medium, containing 1% Glutamax solution (Gibco, ref 35050-038), 0.4% Pen Strep solution (Gibco, ref 15140-122) and bovine serum. The cPLA2α inhibitors were tested in 0.5% bovine serum (HyClone, ref SH30072.03) with the exception of769-P, A-204, BT-549, SR, T98G, which were tested in the presence of 1.0% serum and A-704 and LNCaP FGS, which were tested in the in the presence of 10% serum. Reference com-pounds were all tested in the presence of 10% bovine serum.
Cells were dispensed in a 384-well plate, at a concentration of 200 - 3200 cells per well, depending on the cell line, in 45 μL medium. Plated cells were incubated in a humidified atmosphere of 5% CO2 at 37 °C. After 24 hours, 5 μL of compound dilu-tion was added and plates were further incubated for another 72 hours. After 72 hours, 25 μL of ATPlite 1Step™ (PerkinElmer) solution was added to each well, and subse-quently shaken for 2 minutes. After 10 minutes of incubation in the dark, the lumines-cence was recorded on an Envision multimode reader (PerkinElmer).
Cell growth control. The cellular doubling times of all cell lines are calculated from the t = 0 hours and t = 72 hours growth signals of the untreated cells. If the doubling time is out of specification (0.5 – 2.0 times deviating from historic average) the assay […]
IC50s were calculated by non-linear regression using IDBS XLfit 5. The percentage growth after 72h (%-growth) was calculated as follows: 100% x (luminescence t = 72h / luminescence untreated,t=72h). This was fitted to the 10log compound concentration (conc) by a 4-parameter logistics curve: %-growth = bottom + (top – bottom) / (1+ 10(logIC50 – conc)*hill)), where hill is the Hill-coefficient, and bottom and top the asymptotic mini-mum and maximum cell growth that the compound allows in that assay.
All analysis were performed in the statistical software package R and visualized using GraphPad Prism version 10.0 .0

CCCCCCCCc1ccc(OCC(=O)c2nc(C(=O)OC)cs2)cc1 [GK470]
IC50 (SK-N-AS, SKNAS, peripheral_nervous_system, read-out: pIC50 (converted)): 19.1 µM
IC50 (SK-N-AS, read-out: IC50): 19 µM
IC50 (SK-N-FI, read-out: IC50): 17.5 µM
IC50 (SNU-C2B, read-out: IC50): 14.7 µM
IC50 (SR, read-out: IC50): 13.8 µM
IC50 (SUP-T1, SUP-T1, read-out: IC50): 12.5 µM
IC50 (SW48, SW48, large_intestine, read-out: pIC50 (converted)): 20 µM
IC50 (SW48, SW48, read-out: IC50): 19.9 µM
IC50 (SW480, SW480, read-out: IC50): 13.5 µM
IC50 (SW948, SW948, read-out: IC50): 17.4 µM
IC50 (SW-620, SW620, read-out: IC50): 18.1 µM
IC50 (T98G, read-out: IC50): 28.4 µM
IC50 (T-24, T24, read-out: IC50): 12.3 µM
IC50 (TT, read-out: IC50): 21.8 µM
IC50 (U2OS, U-2 OS, read-out: IC50): 17.7 µM
IC50 (U-87 MG, U87MG, central_nervous_system, read-out: pIC50 (converted)): 17 µM
IC50 (U-87 MG, read-out: IC50): 17 µM
IC50 (VA-ES-BJ, read-out: IC50): 19.6 µM
pIC50 (Hs578T, breast): 4,862
pIC50 (J82, urinary_tract): 4,801
raw signal, dose-response (Figure S7a) (Jurkat E6.1, Log10 M -4): 1240 and 667
raw signal, dose-response (Figure S7a) (Jurkat E6.1, Log10 M -4.5): 69347 and 62800
raw signal, dose-response (Figure S7a) (Jurkat E6.1, Log10 M -5): 1516720 and 2014840
raw signal, dose-response (Figure S7a) (Jurkat E6.1, Log10 M -5.5): 2624707 and 2368947
raw signal, dose-response (Figure S7a) (Jurkat E6.1, Log10 M -6): 2496507 and 2717280
raw signal, dose-response (Figure S7a) (Jurkat E6.1, Log10 M -6.5): 2786800 and 2504560
raw signal, dose-response (Figure S7a) (Jurkat E6.1, Log10 M -7): 2315800 and 2537613
raw signal, dose-response (Figure S7a) (Jurkat E6.1, Log10 M -7.5): 2302120 and 2459400
raw signal, dose-response (Figure S7a) (Jurkat E6.1, Log10 M -8): 2509133 and 2328987
pIC50 (Jurkat, blood): 4,903
pIC50 (K562, blood): 4,964
pIC50 (KU812, blood): 4,982
raw signal, dose-response (Figure S7a) (KU812, Log10 M -4): 2000 and 2307
raw signal, dose-response (Figure S7a) (KU812, Log10 M -5): 1822573 and 2233120
raw signal, dose-response (Figure S7a) (KU812, Log10 M -5.5): 3176813 and 3177440
raw signal, dose-response (Figure S7a) (KU812, Log10 M -6): 3485480 and 3637827
raw signal, dose-response (Figure S7a) (KU812, Log10 M -6.5): 3729800 and 3806653
raw signal, dose-response (Figure S7a) (KU812, Log10 M -7): 3631000 and 3828800
raw signal, dose-response (Figure S7a) (KU812, Log10 M -7.5): 3591800 and 3773040
raw signal, dose-response (Figure S7a) (KU812, Log10 M -8): 3583000 and 3731880
pIC50 (LoVo, large_intestine): 4,715
pIC50 (MCF7, breast): 4,897
pIC50 (MIAPaCa2, pancreas): 4,962
raw signal, dose-response (Figure S7a) (MOLT-4, Log10 M -4): 6747 and 7320
raw signal, dose-response (Figure S7a) (MOLT-4, Log10 M -4.5): 20107 and 20253
raw signal, dose-response (Figure S7a) (MOLT-4, Log10 M -5): 5205800 and 4645067
raw signal, dose-response (Figure S7a) (MOLT-4, Log10 M -5.5): 6414373 and 7056240
raw signal, dose-response (Figure S7a) (MOLT-4, Log10 M -6): 6351120 and 6709307
raw signal, dose-response (Figure S7a) (MOLT-4, Log10 M -6.5): 7338240 and 7172960
raw signal, dose-response (Figure S7a) (MOLT-4, Log10 M -7): 6855453 and 6993467
raw signal, dose-response (Figure S7a) (MOLT-4, Log10 M -7.5): 7127253 and 7052227
raw signal, dose-response (Figure S7a) (MOLT-4, Log10 M -8): 6961773 and 6888133
pIC50 (MeWo, skin): 4,763
pIC50 (NCIH82, lung): 4,863
pIC50 (NCIH460, lung): 4,648
pIC50 (PA1, ovary): 4,937
pIC50 (RPMI7951, skin): 4,789
pIC50 (RT4, urinary_tract): 4,784
pIC50 (SHP77, lung): 4,925
pIC50 (SKNFI, peripheral_nervous_system): 4,757
raw signal, dose-response (Figure S7a) (SR, Log10 M -4): 14067 and 13787
raw signal, dose-response (Figure S7a) (SR, Log10 M -4.5): 35000 and 26573
raw signal, dose-response (Figure S7a) (SR, Log10 M -5): 2706093 and 3120400
raw signal, dose-response (Figure S7a) (SR, Log10 M -5.5): 3256320 and 3580587
raw signal, dose-response (Figure S7a) (SR, Log10 M -6): 3226453 and 3322280
raw signal, dose-response (Figure S7a) (SR, Log10 M -6.5): 3558600 and 3526027
raw signal, dose-response (Figure S7a) (SR, Log10 M -7): 2883787 and 3035533
raw signal, dose-response (Figure S7a) (SR, Log10 M -7.5): 3423760 and 3325493
raw signal, dose-response (Figure S7a) (SR, Log10 M -8): 3355853 and 3535333
raw signal, dose-response (Figure S7a) (SUP-T1, Log10 M -4): 23760 and 47307
raw signal, dose-response (Figure S7a) (SUP-T1, Log10 M -4.5): 44040 and 66933
raw signal, dose-response (Figure S7a) (SUP-T1, Log10 M -5): 5647093 and 4986840
raw signal, dose-response (Figure S7a) (SUP-T1, Log10 M -5.5): 6851973 and 7008107
raw signal, dose-response (Figure S7a) (SUP-T1, Log10 M -6): 6610693 and 7288227
raw signal, dose-response (Figure S7a) (SUP-T1, Log10 M -6.5): 6531960 and 6798507
raw signal, dose-response (Figure S7a) (SUP-T1, Log10 M -7): 6485200 and 6760880
raw signal, dose-response (Figure S7a) (SUP-T1, Log10 M -7.5): 6096293 and 6838453
raw signal, dose-response (Figure S7a) (SUP-T1, Log10 M -8): 6918733 and 6611987
pIC50 (SUPT1, blood): 4,905
pIC50 (SW480, large_intestine): 4,869
pIC50 (SW620, large_intestine): 4,743
pIC50 (SW948, large_intestine): 4,759
pIC50 (T24, urinary_tract): 4,911
pIC50 (T98G, central_nervous_system): 4,546
pIC50 (TT, thyroid): 4,661
pIC50 (U2OS, bone): 4,752
pIC50 (VAESBJ, soft_tissue): 4,707
